{"source": "paper PMC12715762", "about": "“Discovery of VU6052254: A Novel, Potent M1 Positive Allosteric Modulator” (ACS Chemical Neuroscience, 2025)", "key": {"[1]": {"details": "Human Phase I; cited from earlier work"}, "[2]": {"experiment": "hepatocyte metabolite stability (human)", "format": "in vitro ADME", "details": "Human hepatocytes, 4 h incubation of the parent PAM", "description": "From this exercise, a single compound emerged, harboring a tertiary hydroxyl moiety at the 7-position of the indazole, VU6052254 (henceforth PAM 7).\n(§1) However, the hepatocyte stability of 7 was far better than 1 for rat, dog, and human and was therefore poised for further advancement of compound characterization."}, "[3]": {"experiment": "hepatocyte metabolite stability (monkey)", "format": "in vitro ADME", "details": "Monkey hepatocytes, 4 h incubation of the parent PAM", "description": "as §1"}, "[4]": {"experiment": "multispecies hepatocyte stability, summary across species", "format": "in vitro ADME, rat, dog, monkey, human", "description": "as §1"}, "[5]": {"experiment": "kinetic / aqueous solubility", "format": "physicochemical", "details": "result in words"}, "[6]": {"details": "dog MTD study and high-dose rat 14-day toxicology study; result in words; cited from earlier work"}, "[7]": {"system": "Sprague-Dawley rats", "experiment": "CFC with scopolamine challenge", "format": "in vivo, rat"}}}
{"molecule": "Cn1cc2c(-c3cc(F)c(CN4C(=O)c5cccnc5C4O)c(F)c3)cccc2n1", "note": "(stereo not shown) [compound 2]", "values": [{"measurement": "metabolite share of plasma AUC of total VU0467319 drug administered", "setting": "[1]", "value": "> 50", "unit": "%"}, {"measurement": "% Total Peak Area, oxidative metabolite (label = metabolite)", "setting": "[2]", "value": 34.9, "unit": "%"}, {"measurement": "% Total Peak Area, oxidative metabolite (label = metabolite)", "setting": "[3]", "value": 74.3, "unit": "%"}, {"measurement": "level of oxidative metabolite generated (label = metabolite)", "setting": "[4]; across all four species (rat, dog, monkey, human hepatocytes)", "value": "> 23", "unit": "%"}]}
{"molecule": "[2H]C1([2H])c2ncccc2C(=O)N1Cc1c(F)cc(-c2cccc3nn(C([2H])([2H])[2H])cc23)cc1F", "note": "[compound 5]", "values": [{"measurement": "aqueous solubility", "setting": "[5]", "value": "low aqueous solubility"}, {"measurement": "amount of oxidative metabolism at high dose", "setting": "[6]", "value": "comparable to that of VU0467319 (1)"}]}
{"molecule": "[2H]C1(O)c2ncccc2C(=O)N1Cc1c(F)cc(-c2cccc3nn(C([2H])([2H])[2H])cc23)cc1F", "note": "(stereo not shown) [compound 6]", "values": [{"measurement": "% Total Peak Area, oxidative metabolite (label = metabolite)", "setting": "[3]", "value": 21, "unit": "%"}, {"measurement": "level of oxidative metabolite generated (label = metabolite)", "setting": "[4]; across species except for monkey", "value": "< 10", "unit": "%"}]}
{"molecule": "CN1[C@@H]2C[C@@H](OC(=O)[C@H](CO)c3ccccc3)C[C@H]1[C@@H]1O[C@@H]12", "note": "[scopolamine]", "values": [{"measurement": "disruption of acquisition of CFC", "setting": "[7]; 0.25 mg/kg IP, rat", "value": "~65", "unit": "%"}, {"measurement": "effect of scopolamine alone on acquisition of CFC", "setting": "[7]; 0.26 mg/kg as printed, result in words", "value": "robust decrease in the acquisition of CFC"}]}
